The test system of one experiment is RS4; 11 with G101V mutation. Description: In vitro anti-proliferation assay (ATPlite luminescence) in BCL-2-dependent ALL cell line RS4;11 with G101V mutation. It counts as cell-based. To be noted: Homo sapiens, RS4-11, 72 h; read-out: RS411-G101V IC50. In short, it runs like this:
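RS4;11 G101V cells at about 1×10^4 per well were exposed to a range of compound concentrations for about 72 h in medium with 10% FBS. Cellular ATP was measured by ATPlite luminescence after lysis, and IC50 was derived from the dose-response.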
On the technique in general: Cellular ATP, detected with luciferase, serves as a proxy for viable cell number.
For orientation: IC50 means the midpoint of a concentration-inhibition curve. `CC(C)Oc1ccccc1[C@@H]1CN([C@@H]2CCOc3c(F)cc(F)cc32)CCN1C1CC2(CCN(c3ccc(C(=O)NS(=O)(=O)c4cc5c(c([N+](=O)[O-])c4)N[C@H](C4CCOCC4)CO5)c(N4c5cc6cc[nH]c6nc5O[C@H]5COCC[C@@H]54)c3)CC2)C1` [Example 215, 4-(2-((R)-4-((R)-6,8-difluorochroman-4-yl)-2-(2-isopropoxyphenyl)piperazin-1-yl)-7-azaspiro[3.5]nonan-7-yl)-N-(((R)-5-nitro-3-(tetrahydro-2H-pyran-4-yl)-3,4-dihydro-2H-benzo[b][1,4]oxazin-7-yl)sulfonyl)-2-((5aS,9aR)-6,7,9,9a-tetrahydro-1H-pyrano[3,4-b]pyrrolo[3′,2′:5,6]pyrido[3,2-e][1,4]oxazin-5(5aH)-yl)benzamide]: the IC50 is 48 nM.

In the case of `COc1cc(CN2CCN(C3CC4(CCN(c5ccc(C(=O)NS(=O)(=O)c6ccc(NCC7CCOCC7)c([N+](=O)[O-])c6)c(N6c7cc8cc[nH]c8nc7O[C@H]7COCC[C@@H]76)c5)CC4)C3)[C@@H](c3ccccc3OC(C)C)C2)cnc1N1CCOCC1` [Example 144, 4-(2-((S)-2-(2-isopropoxyphenyl)-4-((5-methoxy-6-morpholinopyridin-3-yl)methyl)piperazin-1-yl)-7-azaspiro[3.5]nonan-7-yl)-N-((3-nitro-4-(((tetrahydro-2H-pyran-4-yl)methyl)amino)phenyl)sulfonyl)-2-((5aS,9aR)-6,7,9,9a-tetrahydro-1H-pyrano[3,4-b]pyrrolo[3′,2′:5,6]pyrido[3,2-e][1,4]oxazin-5(5aH)-yl)benzamide], the IC50 was found to be 7.3 nM.

Staying with this experiment, now noted: cellular anti-proliferative IC50, about 72 hours, medium with 10% FBS, ATPlite; read-out: RS411-G101V IC50.
As for `Cc1ccccc1[C@@H]1CN(Cc2ccnc3c2OCC(C)(C)O3)CCN1C1CC2(CCN(c3ccc(C(=O)NS(=O)(=O)c4ccc(NCC5CCC(C)(O)CC5)c([N+](=O)[O-])c4)c(N4c5cc6cc[nH]c6nc5O[C@H]5COCC[C@@H]54)c3)CC2)C1` (stereo partly drawn) [Example 148, 4-(2-((R)-4-((3,3-dimethyl-2,3-dihydro-[1,4]dioxino[2,3-b]pyridin-8-yl)methyl)-2-(o-tolyl)piperazin-1-yl)-7-azaspiro[3.5]nonan-7-yl)-N-((4-((((1r,4r)-4-hydroxy-4-methylcyclohexyl)methyl)amino)-3-nitrophenyl)sulfonyl)-2-((5aS,9aR)-6,7,9,9a-tetrahydro-1H-pyrano[3,4-b]pyrrolo[3′,2′:5,6]pyrido[3,2-e][1,4]oxazin-5(5aH)-yl)benzamide], the IC50 came out at 6.3 nM.

Regarding `CC(C)Oc1ccccc1[C@@H]1CN(C2CCC3(CCOCC3)CC2)CCN1C1CC2(CCN(c3ccc(C(=O)NS(=O)(=O)c4cc5c(c([N+](=O)[O-])c4)N[C@H](C4CCOCC4)CO5)c(N4c5cc6cc[nH]c6nc5O[C@H]5COCC[C@@H]54)c3)CC2)C1` (stereo partly drawn) [Example 209, 2-[(3R,8S)-2,5-dioxa-9,15,17-triazatetracyclo[8.7.0.0^{3,8}.0^{12,16}]heptadeca-1(10),11,13,16-tetraen-9-yl]-4-{2-[(2R)-2-(2-isopropoxyphenyl)-4-{3-oxaspiro[5.5]undecan-9-yl}piperazin-1-yl]-7-azaspiro[3.5]nonan-7-yl}-N-[(3R)-5-nitro-3-(oxan-4-yl)-3,4-dihydro-2H-1,4-benzoxazin-7-ylsulfonyl]benzamide], the IC50 turned out to be 16.3 nM.

In the case of `COc1cc(CN2CCN(C3CC4(CCN(c5ccc(C(=O)NS(=O)(=O)c6ccc(NCC7CCC(C)(O)CC7)c([N+](=O)[O-])c6)c(N6c7cc8cc[nH]c8nc7O[C@H]7COCC[C@@H]76)c5)CC4)C3)[C@H](c3ccccc3C)C2)cnc1N1CCOCC1` (stereo partly drawn) [Example 123, N-((4-((((1r,4r)-4-hydroxy-4-methylcyclohexyl)methyl)amino)-3-nitrophenyl)sulfonyl)-4-(2-((R)-4-((5-methoxy-6-morpholinopyridin-3-yl)methyl)-2-(o-tolyl)piperazin-1-yl)-7-azaspiro[3.5]nonan-7-yl)-2-((5aS,9aR)-6,7,9,9a-tetrahydro-1H-pyrano[3,4-b]pyrrolo[3′,2′:5,6]pyrido[3,2-e][1,4]oxazin-5(5aH)-yl)benzamide], the IC50 is 2.9 nM.

In the case of `CC(C)Oc1ccccc1[C@@H]1CN([C@@H](C)c2ccc(F)c(F)c2)CCN1C1CC2(CCN(c3ccc(C(=O)NS(=O)(=O)c4cc5c(c([N+](=O)[O-])c4)N[C@H](C4CCOCC4)CO5)c(N4c5cc6cc[nH]c6nc5O[C@H]5COCC[C@@H]54)c3)CC2)C1` [Example 243, 4-{2-[(2R)-4-[(1S)-1-(3,4-difluorophenyl)ethyl]-2-(2-isopropoxyphenyl)piperazin-1-yl]-7-azaspiro[3.5]nonan-7-yl}-2-[(3R,8S)-2,5-dioxa-9,15,17-triazatetracyclo[8.7.0.0^{3,8}.0^{12,16}]heptadeca-1(10),11,13,16-tetraen-9-yl]-N-[(3R)-5-nitro-3-(oxan-4-yl)-3,4-dihydro-2H-1,4-benzoxazin-7-ylsulfonyl]benzamide], the IC50 was found to be 22.2 nM.

As to `Cc1ccccc1[C@@H]1CN(Cc2ccc(F)c(F)c2)CCN1C1CC2(CCN(c3ccc(C(=O)NS(=O)(=O)c4ccc(NCC5CCC(C)(O)CC5)c([N+](=O)[O-])c4)c(N4c5cc6cc[nH]c6nc5O[C@H]5COCC[C@@H]54)c3)CC2)C1` (stereo partly drawn) [Example 154, 4-{2-[(2R)-4-[(3,4-difluorophenyl)methyl]-2-(2-methylphenyl)piperazin-1-yl]-7-azaspiro[3.5]nonan-7-yl}-2-[(3R,8S)-2,5-dioxa-9,15,17-triazatetracyclo[8.7.0.0^{3,8}.0^{12,16}]heptadeca-1(10),11,13,16-tetraen-9-yl]-N-[3-nitro-4-({[(1r,4r)-4-hydroxy-4-methylcyclohexyl]methyl}amino)benzenesulfonyl]benzamide], the IC50 worked out at 27.6 nM.

As to `CC(C)Oc1ccccc1[C@H]1CN(Cc2ccc(N3CCOCC3)nc2)CCN1C1CC2(CCN(c3ccc(C(=O)NS(=O)(=O)c4ccc(NCC5CCC(C)(O)CC5)c([N+](=O)[O-])c4)c(N4c5cc6cc[nH]c6nc5O[C@H]5COCC[C@@H]54)c3)CC2)C1` (stereo partly drawn) [Example 100, 2-[(3R,8S)-2,5-dioxa-9,15,17-triazatetracyclo[8.7.0.0^{3,8}.0^{12,16}]heptadeca-1(10),11,13,16-tetraen-9-yl]-4-{2-[(2S)-2-(2-isopropoxyphenyl)-4-{[6-(morpholin-4-yl)pyridin-3-yl]methyl}piperazin-1-yl]-7-azaspiro[3.5]nonan-7-yl}-N-[3-nitro-4-({[(1r,4r)-4-hydroxy-4-methylcyclohexyl]methyl}amino)benzenesulfonyl]benzamide], the IC50 stood at 16.1 nM.

For the molecule `Cc1ccccc1[C@@H]1CN(Cc2cnc(N3CCOC[C@@H]3C)c(C(F)(F)F)c2)CCN1C1CC2(CCN(c3ccc(C(=O)NS(=O)(=O)c4cc5c(c([N+](=O)[O-])c4)N[C@H](C4CCOCC4)CO5)c(N4c5cc6cc[nH]c6nc5O[C@H]5COCC[C@@H]54)c3)CC2)C1` [Example 206, 2-[(3R,8S)-2,5-dioxa-9,15,17-triazatetracyclo[8.7.0.0^{3,8}.0^{12,16}]heptadeca-1(10),11,13,16-tetraen-9-yl]-4-{2-[(2R)-4-({6-[(3S)-3-methylmorpholin-4-yl]-5-(trifluoromethyl)pyridin-3-yl}methyl)-2-(2-methylphenyl)piperazin-1-yl]-7-azaspiro[3.5]nonan-7-yl}-N-[(3R)-5-nitro-3-(oxan-4-yl)-3,4-dihydro-2H-1,4-benzoxazin-7-ylsulfonyl]benzamide], the IC50 was 229 nM.

As for `CC(C)Oc1ccccc1[C@H]1CN(Cc2ccc(N3CCOC[C@H]3C)cc2)CCN1C1CC2(CCN(c3ccc(C(=O)NS(=O)(=O)c4ccc(NCC5CCC(C)(O)CC5)c([N+](=O)[O-])c4)c(N4c5cc6cc[nH]c6nc5O[C@H]5COCC[C@@H]54)c3)CC2)C1` (stereo partly drawn) [Example 116, 2-[(3R,8S)-2,5-dioxa-9,15,17-triazatetracyclo[8.7.0.0^{3,8}.0^{12,16}]heptadeca-1(10),11,13,16-tetraen-9-yl]-4-{2-[(2S)-2-(2-isopropoxyphenyl)-4-({4-[(3R)-3-methylmorpholin-4-yl]phenyl}methyl)piperazin-1-yl]-7-azaspiro[3.5]nonan-7-yl}-N-[3-nitro-4-({[(1r,4r)-4-hydroxy-4-methylcyclohexyl]methyl}amino)benzenesulfonyl]benzamide], the half-inhibitory concentration (IC50) was determined as 28.7 nM.

Consider `COc1cc(CN2CCN([C@@H]3CC4(CCN(c5ccc(C(=O)NS(=O)(=O)c6ccc(NCC7CCC(C)(O)CC7)c([N+](=O)[O-])c6)c(N6c7cc8cc[nH]c8nc7O[C@H]7COCC[C@@H]76)c5)CC4)[C@H]3C)[C@@H](c3ccccc3OC(C)C)C2)cnc1N1CCOCC1` (stereo partly drawn) [Example 121, 2-[(3R,8S)-2,5-dioxa-9,15,17-triazatetracyclo[8.7.0.0^{3,8}.0^{12,16}]heptadeca-1(10),11,13,16-tetraen-9-yl]-4-[(1R,2R)-2-[(2S)-2-(2-isopropoxyphenyl)-4-{[5-methoxy-6-(morpholin-4-yl)pyridin-3-yl]methyl}piperazin-1-yl]-1-methyl-7-azaspiro[3.5]nonan-7-yl]-N-[3-nitro-4-({[(1r,4r)-4-hydroxy-4-methylcyclohexyl]methyl}amino)benzenesulfonyl]benzamide], for which the IC50 came to 47.9 nM.

Regarding `COc1cc(CN2CCN(C3CC4(CCN(c5ccc(C(=O)NS(=O)(=O)c6cc7c(c([N+](=O)[O-])c6)N[C@H](C6CCOCC6)CO7)c(N6c7cc8cc[nH]c8nc7O[C@H]7COCC[C@@H]76)c5)CC4)C3)[C@H](c3ccccc3C)C2)cnc1N1CCOC[C@@H]1C` [Example 187, 2-[(3R,8S)-2,5-dioxa-9,15,17-triazatetracyclo[8.7.0.0^{3,8}.0^{12,16}]heptadeca-1(10),11,13,16-tetraen-9-yl]-4-{2-[(2R)-4-({5-methoxy-6-[(3S)-3-methylmorpholin-4-yl]pyridin-3-yl}methyl)-2-(2-methylphenyl)piperazin-1-yl]-7-azaspiro[3.5]nonan-7-yl}-N-[(3R)-5-nitro-3-(oxan-4-yl)-3,4-dihydro-2H-1,4-benzoxazin-7-ylsulfonyl]benzamide], the IC50 was 2.04 nM.

For the origin of these results see patent US20250114374A1, “BCL-2 INHIBITORS” (Newave Pharmaceutical Inc., priority 2021, published 2025).
